Test results: article PMC10914734 (Signal Transduction and Targeted Therapy, 2024)
Read-outs that look alike come from different tables or passages of the source.

Key:
Human CTSG = Human CTSG (Homo sapiens, UniProt P08311); test: Protease panel, CTSG inhibition; format: biochemical; conditions: at a concentration of 20 μM; read-out: Inhibition rate, Human CTSG
[1] = tested on: vesicular stomatitis virus G glycoprotein (VSV-G) mediated entry; format: cell-based
Human Elastase = test: Protease panel, elastase inhibition; format: biochemical; conditions: at a concentration of 20 μM
HCoV-OC43 = test: microbe, parasite or virus in culture; format: cell-based; conditions: Betacoronavirus 1, OC43, RD, read-out: EC50, authentic HCoV-OC43
B.1.617.2 (Delta) [2] = test: microbe, parasite or virus in culture; format: cell-based; conditions: Severe acute respiratory syndrome coronavirus 2, HEK-293T, read-out: EC50, SARS-CoV-2 B.1.617.2 (Delta)
[3] = tested on: SARS-CoV-2-S-mediated cell-cell fusion; test: SARS-CoV-2-S-mediated cell-cell fusion assay; format: cell-based
HCoV-229E = test: microbe, parasite or virus in culture; format: cell-based; conditions: Human coronavirus 229E, Huh-7, read-out: EC50, authentic HCoV-229E
SARS-CoV-2 PsV = format: cell-based; conditions: 500 nM
B.1.351 (Beta) = test: microbe, parasite or virus in culture; format: cell-based; conditions: Severe acute respiratory syndrome coronavirus 2, Vero C1008, read-out: EC50, SARS-CoV-2 B.1.351 (Beta)
Human CTSB = Human CTSB (Homo sapiens, UniProt P07858); test: biochemical
Human TMPRSS2 = Human TMPRSS2 (Homo sapiens, UniProt O15393); test: Protease panel, TMPRSS2 inhibition; format: biochemical; conditions: at a concentration of 10 μM; for inhibition at 10 µM: read-out: Inhibition rate, Human TMPRSS2
Experimental: Enzymatic activity and inhibition assays of both compounds against the remaining proteases in Supplementary Table S2 were measured by a commercial company.

B.1.617.2 (Delta) [4] = test: microbe, parasite or virus in culture; format: cell-based; conditions: Severe acute respiratory syndrome coronavirus 2, Vero C1008, read-out: EC50, SARS-CoV-2 B.1.617.2 (Delta)
Human Caspase 3 = Human Caspase 3 (Homo sapiens, UniProt P42574); test: Protease panel, caspase 3 inhibition; format: biochemical; conditions: at a concentration of 20 μM; read-out: Inhibition rate, Human Caspase 3
Human CTSC = Human CTSC (Homo sapiens, UniProt P53634); test: biochemical
SARS-CoV-2 = test: Authentic virus inhibition assay, SARS-CoV-2 wild-type strain in Vero-E6 cells; format: cell-based; conditions: Severe acute respiratory syndrome coronavirus 2, Vero C1008
Human Trypsin = test: Protease panel, trypsin inhibition; format: biochemical; conditions: at a concentration of 20 μM
Human CTSE = Human CTSE (Homo sapiens, UniProt P14091); test: Protease panel, CTSE inhibition; format: biochemical; conditions: at a concentration of 20 μM; read-out: Inhibition rate, Human CTSE
SARS-CoV-2 RdRp = SARS-CoV-2 RdRp (Severe acute respiratory syndrome coronavirus 2, UniProt P0DTD1); test: biochemical
Human Furin = Human Furin (Homo sapiens, UniProt P09958); test: Protease panel, furin inhibition; format: biochemical; conditions: at a concentration of 20 μM; for inhibition: read-out: Inhibition rate, Human Furin
Pharmacokinetics in dogs = format: in vivo; conditions: for AUC(0-t) / clearance / half-life / AUC(0-inf) / MRT inf / Cmax / Tmax / bioavailability: male, Beagle, dog, plasma; for AUC(0-inf): read-out: AUCINF_obs; for MRT inf: read-out: MRTINF_obs
Experimental: Three groups of male Beagle dogs weighing 9 to 12 kg (2 animals per group) were intravenously (1 mg/kg), subcutaneously (1 mg/kg) and orally (5 mg/kg) dosed 14a in a vehicle consisting of 5% dimethyl sulfoxide, 7.5% Kolliphor HS 15 and 87.5% saline (volume ratio). Serial blood samples were collected at 0.083, 0.25, 0.75, 2.0, 4.0, 6.0, 8.0 and 24.0 h for the intravenous and […] groups and 0.25, 0.5, 1.0, 2.0, 4.0, 6.0, 8.0 and 24.0 h for the oral group after dose administration. Two groups of male Beagle dogs weighing 9 to 12 kg (3 animals per group) were intravenously (1 mg/kg) and subcutaneously (1 mg/kg) dosed 14b in a vehicle consisting of 5% dimethyl sulfoxide, 5% ethanol, 40% polyethylene glycol 400 and 50% saline (volume ratio). Serial blood samples were collected at 0.083, 0.25, 0.50, 1.00, 2.00, 4.00, 8.00 and 24.0 h after dose administration. A group of 3 male Beagle dogs weighing 9 to 12 kg was administered an oral dose of 5 mg/kg 14b in a vehicle consisting of 5% dimethyl sulfoxide and 95% hydroxypropyl methyl cellulose solution (0.5% hydroxypropyl methyl cellulose in deionized water in weight ratio) (volume ratio). Serial blood samples were collected at 0.25, 0.50, 1.00, 2.00, 4.00, 8.00 and 24.0 h after dose administration. All blood samples were obtained by centrifugation and stored at -20 °C until analysis.
Plasma compound concentrations were obtained through HPLC-MS/MS, and the pharmacokinetics parameters were analyzed by Phoenix WinNonlin 7.0. The following parameters were determined: Cmax (maximal concentration of drug in plasma), AUClast or AUCINF_obs (area under the concentration curve from the time of dosing to the last measurable concentration or from the time of dosing to infinity, respectively). Tmax (time of maximum observed concentration), T1/2 (half-life of elimination), MRTINF_obs (mean residence time extrapolated to infinity for a substance administered by indicated dosing using observed last concentration), CL (total body clearance), Vss (volume of distribution at steady state) and F (absolute bioavailability, F = (AUCx × Di.v.)/( AUCi.v. × Dx) × 100%, where x is i.p., s.c. or p.o., and AUC is AUCINF_obs).The pharmacokinetic parameters were analyzed by Phoenix WinNonlin 7.0.

Human CTSX = Human CTSX (Homo sapiens, UniProt Q9UBR2); test: biochemical
Human CTSX, sequence (Q9UBR2 62-303): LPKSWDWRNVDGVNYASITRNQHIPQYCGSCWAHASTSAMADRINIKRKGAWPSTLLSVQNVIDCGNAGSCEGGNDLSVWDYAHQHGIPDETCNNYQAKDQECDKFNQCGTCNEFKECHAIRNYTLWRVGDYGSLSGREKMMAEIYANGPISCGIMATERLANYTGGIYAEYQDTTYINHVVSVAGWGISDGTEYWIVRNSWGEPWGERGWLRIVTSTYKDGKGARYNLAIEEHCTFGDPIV

Human TMPRSS2, sequence (O15393 whole entry): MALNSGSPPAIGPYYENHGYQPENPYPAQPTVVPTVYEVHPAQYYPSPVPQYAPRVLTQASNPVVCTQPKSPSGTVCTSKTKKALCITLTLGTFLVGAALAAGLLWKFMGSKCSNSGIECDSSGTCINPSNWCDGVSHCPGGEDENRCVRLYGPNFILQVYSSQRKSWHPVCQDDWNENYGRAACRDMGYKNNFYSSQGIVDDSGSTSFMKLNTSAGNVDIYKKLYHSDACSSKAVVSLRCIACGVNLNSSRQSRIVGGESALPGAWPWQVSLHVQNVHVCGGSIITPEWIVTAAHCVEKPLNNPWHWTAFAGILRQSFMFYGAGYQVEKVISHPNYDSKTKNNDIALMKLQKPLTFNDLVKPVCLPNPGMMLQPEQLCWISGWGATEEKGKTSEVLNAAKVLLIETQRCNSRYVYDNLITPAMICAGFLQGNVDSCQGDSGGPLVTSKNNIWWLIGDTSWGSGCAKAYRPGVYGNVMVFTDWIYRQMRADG
Human Furin, sequence (P09958 108-794): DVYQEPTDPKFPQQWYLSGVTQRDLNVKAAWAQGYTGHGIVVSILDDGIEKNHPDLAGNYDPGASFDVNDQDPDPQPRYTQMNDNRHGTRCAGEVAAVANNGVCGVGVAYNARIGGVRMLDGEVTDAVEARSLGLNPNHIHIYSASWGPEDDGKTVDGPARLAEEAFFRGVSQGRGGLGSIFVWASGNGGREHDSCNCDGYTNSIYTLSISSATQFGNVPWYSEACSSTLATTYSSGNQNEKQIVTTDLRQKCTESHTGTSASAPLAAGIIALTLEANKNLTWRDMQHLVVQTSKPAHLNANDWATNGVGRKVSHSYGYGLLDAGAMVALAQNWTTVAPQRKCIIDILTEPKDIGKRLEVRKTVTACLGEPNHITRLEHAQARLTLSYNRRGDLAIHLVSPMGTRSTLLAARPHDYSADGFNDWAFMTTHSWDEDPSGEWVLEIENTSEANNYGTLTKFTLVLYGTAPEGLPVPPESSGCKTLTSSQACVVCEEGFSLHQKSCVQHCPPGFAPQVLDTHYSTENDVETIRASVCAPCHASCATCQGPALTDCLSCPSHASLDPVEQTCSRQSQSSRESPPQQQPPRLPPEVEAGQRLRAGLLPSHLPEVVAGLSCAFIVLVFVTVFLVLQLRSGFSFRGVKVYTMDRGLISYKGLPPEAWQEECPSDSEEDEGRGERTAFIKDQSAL
Human CTSC, sequence (P53634 25-463): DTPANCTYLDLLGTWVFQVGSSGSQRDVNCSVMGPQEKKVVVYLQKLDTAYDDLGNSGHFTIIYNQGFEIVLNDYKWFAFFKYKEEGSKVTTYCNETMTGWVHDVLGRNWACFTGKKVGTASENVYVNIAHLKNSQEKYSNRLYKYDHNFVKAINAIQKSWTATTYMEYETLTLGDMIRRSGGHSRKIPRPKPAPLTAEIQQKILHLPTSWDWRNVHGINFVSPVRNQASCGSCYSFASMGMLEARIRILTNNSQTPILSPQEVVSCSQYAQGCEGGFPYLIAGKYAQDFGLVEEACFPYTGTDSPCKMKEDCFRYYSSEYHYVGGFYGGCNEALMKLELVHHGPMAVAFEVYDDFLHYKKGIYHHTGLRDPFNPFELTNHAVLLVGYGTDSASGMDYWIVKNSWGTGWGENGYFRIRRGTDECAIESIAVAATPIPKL
Human Caspase 3, sequence (P42574 29-175 limits assumed): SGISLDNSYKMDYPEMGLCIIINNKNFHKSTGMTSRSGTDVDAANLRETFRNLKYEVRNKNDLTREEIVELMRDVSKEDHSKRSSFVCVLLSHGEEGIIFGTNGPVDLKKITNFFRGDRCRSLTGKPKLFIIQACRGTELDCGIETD
Human Caspase 3, sequence (P42574 176-277 limits assumed): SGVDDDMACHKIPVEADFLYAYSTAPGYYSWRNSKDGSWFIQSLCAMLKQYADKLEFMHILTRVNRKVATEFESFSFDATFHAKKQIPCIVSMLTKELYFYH
Human CTSE, sequence (P14091 54-396): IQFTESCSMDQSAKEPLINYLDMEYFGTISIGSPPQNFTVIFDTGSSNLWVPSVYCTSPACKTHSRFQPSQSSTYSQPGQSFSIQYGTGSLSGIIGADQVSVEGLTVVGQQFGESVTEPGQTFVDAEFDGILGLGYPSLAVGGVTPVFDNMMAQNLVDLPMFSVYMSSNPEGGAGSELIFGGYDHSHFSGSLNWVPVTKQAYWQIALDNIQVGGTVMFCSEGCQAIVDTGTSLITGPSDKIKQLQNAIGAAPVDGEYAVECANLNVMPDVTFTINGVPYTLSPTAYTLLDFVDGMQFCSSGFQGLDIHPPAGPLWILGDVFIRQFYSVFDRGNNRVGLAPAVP
Human CTSG, sequence (P08311 21-255): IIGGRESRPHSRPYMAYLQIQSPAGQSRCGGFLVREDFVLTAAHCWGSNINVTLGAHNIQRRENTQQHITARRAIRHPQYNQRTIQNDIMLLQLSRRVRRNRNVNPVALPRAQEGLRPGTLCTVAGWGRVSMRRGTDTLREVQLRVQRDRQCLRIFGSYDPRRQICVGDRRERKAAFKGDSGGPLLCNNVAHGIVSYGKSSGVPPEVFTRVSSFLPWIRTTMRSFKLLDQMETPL

## O=C(NCc1ccccc1)C(=O)[C@H](C[C@@H]1CCCNC1=O)NC(=O)[C@H](Cc1ccc(F)cc1)NC(=O)c1cc2ccccc2o1 [14a, N-((S)-1-(((S)-4-(benzylamino)-3,4-dioxo-1-((S)-2-oxopiperidin-3-yl)butan-2-yl)amino)-3-(4-fluorophenyl)-1-oxopropan-2-yl)benzofuran-2-carboxamide]
Human CTSG
  inhibition: 20 ± 3%
[1]
  Inhibitory activity on VSV-G mediated entry: no inhibitory activity
Human Elastase
  Inhibition rate, Human Elastase: 5 ± 1%
HCoV-OC43
  EC50: 3380 ± 2070 nM
B.1.617.2 (Delta) [2]
  EC50: 0.8 ± 0.16 nM
[3]
  Effect on SARS-CoV-2-S-mediated cell-cell fusion: no effect
HCoV-229E
  EC50: 19 ± 4.17 nM
SARS-CoV-2 PsV
  Antiviral activity by time of addition: lost most of their antiviral activity
B.1.351 (Beta)
  EC50: 162 ± 5.3 nM
Human CTSB
  IC50: 1.23 nM
Human TMPRSS2
  Inhibitory activity against TMPRSS2 (in words): did not exhibit inhibitory activity
  inhibition at 10 µM: -1 ± 1%
B.1.617.2 (Delta) [4]
  EC50: 11 ± 1.8 nM
Human Caspase 3
  inhibition: 25 ± 2%
Human CTSC
  IC50: 181 ± 30.4 nM
SARS-CoV-2
  EC50: 51.7 ± 10.8 nM
Human Trypsin
  Inhibition rate, Human Trypsin: 3 ± 1%
Human CTSE
  inhibition: 13 ± 1%
SARS-CoV-2 RdRp
  IC50: 8020 ± 40 nM
Human Furin
  Inhibitory activity against furin (in words): did not exhibit inhibitory activity
  inhibition: 3 ± 4%
Pharmacokinetics in dogs; i.v. (1 mg/kg)
  Vss_obs: 1.05 L/kg
Pharmacokinetics in dogs; iv, i.v. (1 mg/kg)
  AUC(0-t): 732 ng·h/mL
  clearance: 24.4 mL/min/kg
  half-life: 1.04 h
  AUC(0-inf): 735 ng·h/mL
  MRT inf: 0.74 h
Pharmacokinetics in dogs; po, p.o. (5 mg/kg)
  AUC(0-t): 351 ng·h/mL
  Cmax: 154 ng/mL
  Tmax: 0.75 h
  bioavailability: 10%
  half-life: 1.33 h
  AUC(0-inf): 357 ng·h/mL
  MRT inf: 1.86 h
Pharmacokinetics in dogs; sc, s.c. (1 mg/kg)
  AUC(0-t): 881 ng·h/mL
  Cmax: 116 ng/mL
  Tmax: 0.5 h
  bioavailability: 120%
  half-life: 3.96 h
  AUC(0-inf): 893 ng·h/mL
  MRT inf: 5.14 h
Human CTSX
  IC50: 722 ± 108 nM

## O=C(NCc1ccccc1)C(=O)[C@H](C[C@@H]1CCCNC1=O)NC(=O)[C@H](CC1CCCCC1)NC(=O)c1cc2ccccc2o1 [14b, N-((S)-1-(((S)-4-(benzylamino)-3,4-dioxo-1-((S)-2-oxopiperidin-3-yl)butan-2-yl)amino)-3-cyclohexyl-1-oxopropan-2-yl)benzofuran-2-carboxamide]
Human CTSG
  inhibition: 4 ± 4%
[1]
  Inhibitory activity on VSV-G mediated entry: no inhibitory activity
Human Elastase
  Inhibition rate, Human Elastase: 2 ± 2%
HCoV-OC43
  EC50: 1310 ± 320 nM
B.1.617.2 (Delta) [2]
  EC50: 0.84 ± 0.13 nM
[3]
  Effect on SARS-CoV-2-S-mediated cell-cell fusion: no effect
HCoV-229E
  EC50: 20.6 ± 8.19 nM
SARS-CoV-2 PsV
  Antiviral activity by time of addition: lost most of their antiviral activity
B.1.351 (Beta)
  EC50: 58.1 ± 1.07 nM
Human CTSB
  IC50: 1.01 nM
Human TMPRSS2
  Inhibitory activity against TMPRSS2 (in words): did not exhibit inhibitory activity
  inhibition at 10 µM: 3 ± 1%
B.1.617.2 (Delta) [4]
  EC50: 28.6 ± 3.79 nM
Human Caspase 3
  inhibition: 39 ± 2%
Human CTSC; read-out: IC50, Human CTSC
  IC50: 66.2 ± 7.85 nM
SARS-CoV-2
  EC50: < 40 nM
Human Trypsin
  Inhibition rate, Human Trypsin: 1 ± 1%
Human CTSE
  inhibition: 11 ± 2%
SARS-CoV-2 RdRp
  IC50: 3210 ± 250 nM
Human Furin
  Inhibitory activity against furin (in words): did not exhibit inhibitory activity
  inhibition: -4 ± 1%
Pharmacokinetics in dogs; i.v. (1 mg/kg)
  Vss_obs: 1.59 ± 0.557 L/kg
Pharmacokinetics in dogs; iv, i.v. (1 mg/kg)
  AUC(0-t): 544 ± 148 ng·h/mL
  clearance: 31.9 ± 7.8 mL/min/kg
  half-life: 1.07 ± 0.29 h
  AUC(0-inf): 546 ± 148 ng·h/mL
  MRT inf: 0.82 ± 0.11 h
Pharmacokinetics in dogs; po, p.o. (5 mg/kg)
  AUC(0-t): 271 ± 166 ng·h/mL
  Cmax: 235 ± 173 ng/mL
  Tmax: 0.58 ± 0.38 h
  bioavailability: 10%
  half-life: 2 ± 0.85 h
  AUC(0-inf): 283 ng·h/mL
  MRT inf: 2.19 ± 0.86 h
Pharmacokinetics in dogs; sc, s.c. (1 mg/kg)
  AUC(0-t): 948 ± 46 ng·h/mL
  Cmax: 151 ± 36 ng/mL
  Tmax: 2.08 ± 1.88 h
  bioavailability: 178%
  half-life: 3.19 ± 1.57 h
  AUC(0-inf): 973 ± 54 ng·h/mL
  MRT inf: 4.69 ± 1.25 h
Human CTSX; read-out: IC50, Human CTSX
  IC50: 1310 nM
